Assay results from patent publication US4985352A (The Trustees of Columbia University in the City of New York, priority 1989, dated 1991).

Tested on: NIH3T3 cells
Experiment: Flow cytometry of intracellular Ca2+ in control untransfected NIH3T3 cells
Format: cell-based, mouse
Details: untransfected NIH3T3 cells loaded with indo-1

NCCc1c[nH]c2ccc(O)cc12 [serotonin, 5-hydroxytryptamine]
Intracellular Ca2+ response to serotonin: did not respond
